The text below walks through data of US4916219A, “Oligosaccharide heparin fragments as inhibitors of complement cascade” (University of Iowa Research Foundation, priority 1988, dated 1990).

Assay [1] relates to T1, factor IIa (Homo sapiens).
T1 construct: anti-factor IIa; from tissue
Nature of the assay: Antithrombin III mediated anti-factor IIa activity, purified plasma proteins. Type of assay: biochemical. Particulars: standard curve using heparin (Mr avg 14,000), 167 units/mg. How it is done:
(§1) This example illustrates the anticoagulant activity of each heparin and heparin-oligosaccharide fragment. Anticoagulant activity was determined by aPTT (activated thromboplastin time) (Linhardt et al., J. Biol. Chem. 257: 7310-13, 1982). Antithrombin III-mediated anti-factor IIa and antifactor Xa activity was measured using purified plasma proteins as described in Linhardt et al. and in Table 2. […] Two bovine heparins had 106% and 124% of standard porcine heparin's activity and the low molecular weight heparin had 100% of standard porcine heparin's activity on complement activation.
(§2) The anticoagulant activity of heparin-oligosaccharides and commercial heparins measured by antifactor IIa assays are plotted against their ability to inhibit complement activation in FIG. 5. The porcine heparins, bovine heparins, and low molecular heparins cluster, showing only minor differences in activities.

In a further assay the test system is factor Xa. Nature of the assay: Antithrombin III mediated anti-factor Xa activity, purified plasma proteins. Type of assay: biochemical. The conditions noted are these: standard curve using heparin (Mr avg 14,000), 167 units/mg. How it is done: as §1
Assay [2] has as its system aPTT (activated thromboplastin time). Nature of the assay: Anticoagulant activity by aPTT. In kind it is biochemical. Particulars: standard curve using heparin (Mr avg 14,000), 167 units/mg. How it is done:
as §1, §2

Assay [3] deals with T2, alternative-amplification pathway C3 convertase on EAC4b,3b (Homo sapiens, UniProt P00751+P01024).
T2 construct: C3bBb(P) formation read by lysis with rat serum-EDTA
Nature of the assay: Inhibition of generation of alternative-amplification pathway C3 convertase (lysis of EAC4b,3b). Type of assay: biochemical, sheep erythrocyte. How it is done:
This example illustrates the activity of heparin and heparin-oligosaccharides to inhibit generation of the alternative-amplification pathway C3 convertase. The method described in Weiler et al., J. Exp. Med. 147: 409-421, 1978; Weiler, Immunopharmacology 6: 245-255, 1983; and Sharath et al., Immunopharmacology 9: 73-83, 1985, was used. Briefly, inhibition was examined in experiments that used EAC4b,3b which were prepared to have high, intermediate, and low amounts of C3 on the cell surface. EAC4b,3b^100, EAC4b,3b^20, and EAC4b,3b^5 were produced using a C3 input of 100 μg, 20 μg, and 5 μg per 10^9 EAC4b,2a cellular intermediates, respectively. Complement assay buffer (DGVB^++) 100 μL, alone was added to tubes used for the reagent blank, no inhibition, and 100% lysis; or complement assay buffer containing a heparin or heparin-oligosaccharide solution was added to the remaining tubes. At time zero, 100 μl of complement assay buffer containing a suspension of 1×10^7 EAC4b,3b, an excess amount of P and D (100 ng P), and an amount of B needed to lyse the noninhibited tubes at an average of 1 hemolytic event per cell (0.03 ng B for EAC4b,3b^100, 0.15 ng B for EAC4b,3b^20, and 0.50 ng B for EAC4b,3b^5) was added to each tube. The tubes used for the reagent blank contained no B. The mixtures were incubated for 30 minutes at 30° C. with shaking. Then, 300 μL of a 1:20 dilution of rat serum in 40 mM EDTA was added to each tube and incubation was continued with shaking for 60 minutes at 37° C. Saline (1.5 mL) was then added to each tube, except the 100% tube which was lysed with 1.5 mL of water in place of the saline. Finally, the contents of the tubes were mixed, centrifuged and the absorbance of the supernatant was measured at 414 nm.
The percent lysis, the average number of hemolytic sites per cell (Z), and the percent inhibition were then calculated. Data are expressed as either percent inhibition or as 100 times the ED50 (the amount of heparin resulting in 50% inhibition) for heparin divided by the ED50 for heparin-oligosaccharide. Concentration of heparin and heparin-oligosaccharides are expressed as micrograms per 1×10^7 cellular intermediates. The volume of the reaction tubes during convertase generation varied between 0.2 mL and 0.3 mL; the number of cellular intermediates was held at 1×10^7 per tube. The amount of lysis (Z) seen in the nonhibited tube was relatively independent of the volume of buffer present in the tube during convertase generation. Similarly, the amount of inhibition of convertase generation was independent of the volume of buffer present in the tube during convertase generation.

T2 sequence (P01024 23-1663): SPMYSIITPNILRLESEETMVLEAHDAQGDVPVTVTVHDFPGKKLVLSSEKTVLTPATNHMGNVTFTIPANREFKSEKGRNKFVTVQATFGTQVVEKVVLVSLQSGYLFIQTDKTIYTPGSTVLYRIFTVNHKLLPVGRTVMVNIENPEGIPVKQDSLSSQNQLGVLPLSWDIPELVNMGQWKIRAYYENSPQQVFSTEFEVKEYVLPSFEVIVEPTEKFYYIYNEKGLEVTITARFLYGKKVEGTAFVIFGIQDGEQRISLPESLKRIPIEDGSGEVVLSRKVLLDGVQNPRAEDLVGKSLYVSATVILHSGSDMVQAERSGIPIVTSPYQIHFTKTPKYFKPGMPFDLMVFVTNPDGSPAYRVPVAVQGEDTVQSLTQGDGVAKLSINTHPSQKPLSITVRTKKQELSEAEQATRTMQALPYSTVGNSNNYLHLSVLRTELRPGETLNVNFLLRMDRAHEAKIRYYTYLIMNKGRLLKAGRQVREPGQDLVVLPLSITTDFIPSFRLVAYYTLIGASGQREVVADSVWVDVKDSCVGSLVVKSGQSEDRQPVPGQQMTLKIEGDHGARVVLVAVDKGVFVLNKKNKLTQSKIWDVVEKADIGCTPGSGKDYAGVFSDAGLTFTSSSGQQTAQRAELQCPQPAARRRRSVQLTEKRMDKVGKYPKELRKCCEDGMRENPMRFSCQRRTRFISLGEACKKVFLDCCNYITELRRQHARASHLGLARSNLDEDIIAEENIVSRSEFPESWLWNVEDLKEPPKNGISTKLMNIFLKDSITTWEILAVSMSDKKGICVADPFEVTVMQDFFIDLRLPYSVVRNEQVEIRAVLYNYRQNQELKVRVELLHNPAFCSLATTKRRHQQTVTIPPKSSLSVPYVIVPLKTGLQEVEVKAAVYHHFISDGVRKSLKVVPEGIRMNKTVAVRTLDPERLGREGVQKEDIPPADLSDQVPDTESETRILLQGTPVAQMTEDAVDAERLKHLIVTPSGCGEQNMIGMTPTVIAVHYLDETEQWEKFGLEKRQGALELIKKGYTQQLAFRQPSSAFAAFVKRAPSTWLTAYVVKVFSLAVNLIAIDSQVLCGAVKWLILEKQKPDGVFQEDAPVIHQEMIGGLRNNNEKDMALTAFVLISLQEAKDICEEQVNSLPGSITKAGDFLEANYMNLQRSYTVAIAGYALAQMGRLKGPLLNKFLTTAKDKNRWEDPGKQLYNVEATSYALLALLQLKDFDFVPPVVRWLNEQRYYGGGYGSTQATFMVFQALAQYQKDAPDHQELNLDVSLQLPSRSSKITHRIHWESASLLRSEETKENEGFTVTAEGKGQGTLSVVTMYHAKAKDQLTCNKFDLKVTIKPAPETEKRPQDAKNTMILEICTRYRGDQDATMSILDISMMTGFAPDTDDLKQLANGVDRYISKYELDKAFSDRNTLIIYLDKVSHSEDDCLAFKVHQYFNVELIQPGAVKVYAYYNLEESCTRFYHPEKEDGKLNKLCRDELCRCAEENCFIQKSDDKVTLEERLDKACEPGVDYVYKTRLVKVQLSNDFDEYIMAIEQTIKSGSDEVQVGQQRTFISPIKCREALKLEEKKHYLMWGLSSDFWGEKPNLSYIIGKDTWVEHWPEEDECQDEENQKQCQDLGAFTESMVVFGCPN
T2 sequence (P00751 26-764): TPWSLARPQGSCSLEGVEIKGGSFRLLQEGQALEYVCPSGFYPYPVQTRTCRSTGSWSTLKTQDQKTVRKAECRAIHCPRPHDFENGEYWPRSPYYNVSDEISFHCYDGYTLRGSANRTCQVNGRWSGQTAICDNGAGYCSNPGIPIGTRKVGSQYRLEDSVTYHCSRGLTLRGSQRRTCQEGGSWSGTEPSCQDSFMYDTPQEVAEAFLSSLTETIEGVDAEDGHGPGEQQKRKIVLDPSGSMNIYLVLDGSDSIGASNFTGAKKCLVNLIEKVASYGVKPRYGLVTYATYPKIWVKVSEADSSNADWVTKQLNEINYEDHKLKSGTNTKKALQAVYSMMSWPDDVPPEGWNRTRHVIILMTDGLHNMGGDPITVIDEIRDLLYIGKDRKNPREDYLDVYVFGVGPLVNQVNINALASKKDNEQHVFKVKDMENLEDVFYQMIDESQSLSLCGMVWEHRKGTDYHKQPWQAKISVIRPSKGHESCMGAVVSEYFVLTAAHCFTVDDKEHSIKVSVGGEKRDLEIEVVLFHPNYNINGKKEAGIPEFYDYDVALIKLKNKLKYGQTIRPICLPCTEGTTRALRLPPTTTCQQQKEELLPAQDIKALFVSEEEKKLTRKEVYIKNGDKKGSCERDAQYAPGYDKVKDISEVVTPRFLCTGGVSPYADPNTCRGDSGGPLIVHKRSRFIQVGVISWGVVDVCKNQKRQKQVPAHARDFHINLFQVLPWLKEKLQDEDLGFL
T2 sequence (P27918 28-469 partner): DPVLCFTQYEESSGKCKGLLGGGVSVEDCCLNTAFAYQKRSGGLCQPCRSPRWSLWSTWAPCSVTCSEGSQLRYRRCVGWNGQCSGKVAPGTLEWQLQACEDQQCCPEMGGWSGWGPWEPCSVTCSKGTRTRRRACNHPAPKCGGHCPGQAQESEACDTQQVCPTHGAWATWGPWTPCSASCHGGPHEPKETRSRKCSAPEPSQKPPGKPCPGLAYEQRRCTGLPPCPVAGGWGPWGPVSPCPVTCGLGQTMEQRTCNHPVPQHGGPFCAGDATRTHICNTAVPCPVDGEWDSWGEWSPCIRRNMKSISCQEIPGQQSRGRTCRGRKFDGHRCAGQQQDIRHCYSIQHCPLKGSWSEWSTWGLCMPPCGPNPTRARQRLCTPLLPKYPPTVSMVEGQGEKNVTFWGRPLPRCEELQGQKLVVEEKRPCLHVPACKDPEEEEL
T2 sequence (P00746 26-253 partner): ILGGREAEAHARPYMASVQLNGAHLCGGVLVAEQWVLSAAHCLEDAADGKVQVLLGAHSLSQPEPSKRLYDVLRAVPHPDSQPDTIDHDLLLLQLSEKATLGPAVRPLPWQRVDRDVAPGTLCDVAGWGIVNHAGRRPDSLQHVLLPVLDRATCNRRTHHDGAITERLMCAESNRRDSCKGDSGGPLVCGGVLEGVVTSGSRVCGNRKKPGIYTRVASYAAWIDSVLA
T1 sequence (P01008 33-464): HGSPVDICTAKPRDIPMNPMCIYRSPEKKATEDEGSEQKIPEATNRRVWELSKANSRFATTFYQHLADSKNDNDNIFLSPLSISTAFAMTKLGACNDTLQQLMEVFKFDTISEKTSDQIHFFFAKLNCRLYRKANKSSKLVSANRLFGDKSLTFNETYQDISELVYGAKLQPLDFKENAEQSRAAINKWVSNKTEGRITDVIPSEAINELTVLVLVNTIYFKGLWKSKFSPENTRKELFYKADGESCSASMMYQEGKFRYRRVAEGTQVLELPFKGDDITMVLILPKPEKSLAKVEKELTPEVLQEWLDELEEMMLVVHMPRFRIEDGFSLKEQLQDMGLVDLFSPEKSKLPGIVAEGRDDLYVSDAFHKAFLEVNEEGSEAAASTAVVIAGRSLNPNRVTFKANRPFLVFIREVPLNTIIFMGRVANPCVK

On to `O=C(O)C1=C[C@H](O)[C@@H](OS(=O)(=O)O)[C@H](O[C@H]2[C@H](O)[C@@H](NS(=O)(=O)O)[C@@H](O[C@H]3[C@H](O)[C@@H](OS(=O)(=O)O)[C@H](O[C@H]4[C@H](O)[C@@H](NS(=O)(=O)O)C(O)O[C@@H]4COS(=O)(=O)O)O[C@H]3C(=O)O)O[C@@H]2CO)O1` (stereo partly drawn) [4A, ΔUAp2S(1→4)-α-D-GlcNp2S(1→4)-α-L-IdoAp2S-α-D-GlcNp2S6S], for which, in assay [1], the “Anticoagulant ACTIVITY Antithrombin III mediated Anti-factor IIa” value is below 1 units/μmole. Also, the “Anticoagulant ACTIVITY Antithrombin III mediated Anti-factor Xa” value in the assay with factor Xa is listed as below 0.1 units/μmole. Besides, the “Anticoagulant ACTIVITY aPTT” value in assay [2] came to 2 units/μmole. Further, the “Complement activation inhibitory activity” value in assay [3] is reported as “low activity”.
On to `O=C(O)C1=C[C@H](O)[C@@H](OS(=O)(=O)O)[C@H](O[C@H]2[C@H](O)[C@@H](NS(=O)(=O)O)C(O)O[C@@H]2COS(=O)(=O)O)O1` (stereo partly drawn) [compound 2, ΔUAp2S(1→4)-α-D-GlcNp2S6S], for which, in assay [1], the “Anticoagulant ACTIVITY Antithrombin III mediated Anti-factor IIa” value is reported as below 1 units/μmole. In addition, in the assay on factor Xa, the “Anticoagulant ACTIVITY Antithrombin III mediated Anti-factor Xa” value is listed as below 0.1 units/μmole. The “Anticoagulant ACTIVITY aPTT” value in assay [2] is listed as below 1 units/μmole. Moreover, the “Complement activation inhibitory activity” value in assay [3] was “low activity”.
As for `O=C(O)C1=CC(O)C(OS(=O)(=O)O)C(OC2C(COS(=O)(=O)O)OC(OC3C(C(=O)O)OC(OC4C(COS(=O)(=O)O)OC(OC5C(C(=O)O)OC(OC6C(COS(=O)(=O)O)OC(OC7C(C(=O)O)OC(OC8C(COS(=O)(=O)O)OC(O)C(NS(=O)(=O)O)C8O)C(OS(=O)(=O)O)C7O)C(NS(=O)(=O)O)C6O)C(OS(=O)(=O)O)C5O)C(NS(=O)(=O)O)C4O)C(OS(=O)(=O)O)C3O)C(NS(=O)(=O)O)C2O)O1` (centres unmarked) [8D], the “Anticoagulant ACTIVITY Antithrombin III mediated Anti-factor IIa” value in assay [1] is recorded as below 3 units/μmole. Besides, the “Anticoagulant ACTIVITY Antithrombin III mediated Anti-factor Xa” value in the assay with factor Xa was 32 units/μmole. In addition, in assay [2], the “Anticoagulant ACTIVITY aPTT” value is on record as 22 units/μmole.
`O=C(O)C1=C[C@H](O)[C@@H](OS(=O)(=O)O)[C@H](O[C@H]2[C@H](O)[C@@H](NS(=O)(=O)O)[C@@H](O[C@H]3[C@H](O)[C@@H](O)[C@H](O[C@H]4[C@H](O)[C@@H](NS(=O)(=O)O)C(O)O[C@@H]4COS(=O)(=O)O)O[C@@H]3C(=O)O)O[C@@H]2COS(=O)(=O)O)O1` (stereo partly drawn) [4B, ΔUAp2S(1→4)-α-D-GlcNp2S6S(1→4)-β-D-GlcAp(1→4)-α-D-GlcNp2S6S]: the “Anticoagulant ACTIVITY Antithrombin III mediated Anti-factor IIa” value in assay [1] was below 2 units/μmole. Moreover, the “Anticoagulant ACTIVITY Antithrombin III mediated Anti-factor Xa” value with factor Xa came to 0.1 units/μmole. In addition, in assay [2], the “Anticoagulant ACTIVITY aPTT” value was 2 units/μmole. Also, the “Complement activation inhibitory activity” value in assay [3] is “low activity”.
With `O=C(O)C1=C[C@H](O)[C@@H](OS(=O)(=O)O)[C@H](O[C@H]2[C@H](O)[C@@H](NS(=O)(=O)O)[C@@H](O[C@H]3[C@H](O)[C@@H](OS(=O)(=O)O)[C@H](O[C@H]4[C@H](O)[C@@H](NS(=O)(=O)O)C(O)O[C@@H]4COS(=O)(=O)O)O[C@H]3C(=O)O)O[C@@H]2COS(=O)(=O)O)O1` (stereo partly drawn) [4C, ΔUAp2S(1→4)-α-D-GlcNp2S6S(1→4)-α-L-IdoAp2S(1→4)-α-D-GlcNp2S6S], the “Anticoagulant ACTIVITY Antithrombin III mediated Anti-factor IIa” value in assay [1] is given as below 2 units/μmole. In addition, the “Anticoagulant ACTIVITY Antithrombin III mediated Anti-factor Xa” value in the assay with factor Xa is 3 units/μmole. Moreover, the “Anticoagulant ACTIVITY aPTT” value in assay [2] turned out to be 2 units/μmole. Besides, the “Complement activation inhibitory activity” value in assay [3] is listed as “low activity”.
Taken in the same sequence, the figures for `CC(=O)NC1C(OC2C(C(=O)O)OC(OC3C(COS(=O)(=O)O)OC(O)C(NS(=O)(=O)O)C3OS(=O)(=O)O)C(O)C2O)OC(COS(=O)(=O)O)C(OC2OC(C(=O)O)C(OC3OC(COS(=O)(=O)O)C(OC4OC(C(=O)O)=CC(O)C4OS(=O)(=O)O)C(O)C3NS(=O)(=O)O)C(O)C2O)C1O` [6C, ΔUAp2S(1→4)-α-D-GlcNp2S6S(1→4)-α-L-IdoAp(1→4)-α-D-GlcNAcp6S-(1→4)-β-D-GlcAp( 1→4)-α-D-GlcNp2S3S6S] were 11 units/μmole, 26 units/μmole, 26 units/μmole and “low activity”.
Consider `O=C(O)C1=CC(O)C(OS(=O)(=O)O)C(OC2C(COS(=O)(=O)O)OC(OC3C(C(=O)O)OC(OC4C(COS(=O)(=O)O)OC(OC5C(C(=O)O)OC(OC6C(COS(=O)(=O)O)OC(O)C(NS(=O)(=O)O)C6O)C(OS(=O)(=O)O)C5O)C(NS(=O)(=O)O)C4O)C(OS(=O)(=O)O)C3O)C(NS(=O)(=O)O)C2O)O1` (centres unmarked) [6D], for which, in assay [1], the “Anticoagulant ACTIVITY Antithrombin III mediated Anti-factor IIa” value is below 2 units/μmole. For the same molecule, the “Anticoagulant ACTIVITY Antithrombin III mediated Anti-factor Xa” value in the assay with factor Xa stood at 4 units/μmole. Also, the “Anticoagulant ACTIVITY aPTT” value in assay [2] was 11 units/μmole.
The like results for `O=C(O)C1=CC(O)C(OS(=O)(=O)O)C(OC2C(COS(=O)(=O)O)OC(OC3C(C(=O)O)OC(OC4C(COS(=O)(=O)O)OC(OC5C(C(=O)O)OC(OC6C(COS(=O)(=O)O)OC(OC7C(C(=O)O)OC(OC8C(COS(=O)(=O)O)OC(OC9C(C(=O)O)OC(OC%10C(COS(=O)(=O)O)OC(O)C(NS(=O)(=O)O)C%10O)C(OS(=O)(=O)O)C9O)C(NS(=O)(=O)O)C8O)C(OS(=O)(=O)O)C7O)C(NS(=O)(=O)O)C6O)C(OS(=O)(=O)O)C5O)C(NS(=O)(=O)O)C4O)C(OS(=O)(=O)O)C3O)C(NS(=O)(=O)O)C2O)O1` (centres unmarked) [10D] were, in that order, below 3 units/μmole, 136 units/μmole and 54 units/μmole.
